Measured values: patent US20230405151A1, “USE OF IRAK4 MODULATORS FOR GENE THERAPY” (Genzyme Corporation, priority 2022, published 2023)

System: C57BL/6J mice injected with AAV (LacZ transgene)
Experiment: In vivo mouse AAV model: intracellular cytokine staining of splenocytes
Details: chow 30 mg/kg from 15 days prior to AAV; day 21; versus AAV group; N=10
Protocol: In-vivo mice experiments. C57BL/6J mice were purchased from Jackson Laboratories. 6-8-week male mice were divided into 3 groups—PBS group, AAV group and AAV+IRAK4 group all groups with 10 mice each. Zimlovisertib IRAK4 inhibitor (Synonyms: PF-06650833) Cat. No.: HY-19836 (MedChemExpress) was mixed with mouse chow Catalog #2016, Teklad Global 16% Protein Rodent Diets https://www.inotivco.com/rodent-natural-ingredient-2016-diets at a dose of 30 mg/kg. AAV+IRAK4 group was fed the chow with Zimlovisertib IRAK4 inhibitor 15 days prior to AAV injection whereas PBS and AAV group were fed with mouse chow Catalog #2016, Teklad Global 16% Protein Rodent Diets https://www.inotivco.com/rodent-natural-ingredient-2016-diets. PBS group mice were injected intramuscularly with 100 ul PBS, AAV group was injected intramuscularly with 1e11 vg per quadricep muscle of both legs, 100 ul volume.
Intracellular cytokine staining. Splenocytes were harvested from mouse spleens, and 2 million cells were seeded on a 96-well U-bottom plate. The cells were centrifuged at 2,000 rpm for 5 minutes and then resuspended with 100 μl of the RPMI containing 10% FBS and 1×2-mercaptoethanol. 10 μg/ml concentration of AAVrh32.33 overlapping peptide, AAVrh32.33 LacZ immunodominant peptide, and LacZ immunodominant peptide were prepared in the RPMI1640 containing 10% FBS, 1×2-mercaptoethanol, and 1:500 GolgiStop. For the positive control, 0.10 μg/ml PMA and 2 μg/ml Ionomycin solution were prepared in the RPIM1640 containing 10% FBS, 1×2-mercaptoethanol, and 1:500 GolgiStop. Then, 100 μl of the prepared solution was added to the cells, resulting in a final concentration of 5 μg/ml (or 0.05 μg/ml PMA and 1 μg/ml Ionomycin). The cells were incubated at 37° C. 5% CO2 incubator overnight to stimulate the cells. The next day, the cells were centrifuged at 2,000 rpm for 5 minutes, and then washed with the FACS buffer one time. The cells were stained with an antibody cocktail (1:100 anti-CD4 FITC, 1:100 anti-CD8a PerCP-Cy5.5, 1:100 anti-CD44 Pacific Blue, 1:100 Live/Dead Cell Stain Kit) for 30 minutes at 4° C. […]

CC[C@@H]1[C@H](F)C(=O)N[C@@H]1COc1nccc2cc(C(N)=O)c(OC)cc12 [zimlovisertib, 1-[[(2S,3S,4S)-3-Ethyl-4-fluoro-5-oxo-2-pyrrolidinyl]methoxy]-7-methoxy-6-isoquinolinecarboxamide]
reduce significantly: Interferon gamma producing activated CD8 T cells, splenocytes stimulated with AAV immunodominant peptide | Interferon gamma producing activated CD8 T cells, splenocytes stimulated with AAV peptide pools | Interferon gamma producing activated CD8 T cells, splenocytes stimulated with LacZ immunodominant peptide
